# Reference: patent publication US7271239B2, “D-isomers of antimicrobial peptide” (The Research Foundation of State University of New York, priority 2004, dated 2007)
# Read-outs that look alike come from different tables or passages of the source. Where no end group is shown, it is not given here.
# Columns and labels:
# [1] = tested on: S. mutans GS-5; experiment: Time-kill assay; format: cell-based, Streptococcus mutans; conditions: after 4 h incubation, each agent at its MIC
# Description: FIG. 10. Time-Killing curves for S. mutans. […] Control (▪), MUC7 12-mer-L (Δ), MUC7 12-mer-D (□), MUC7 20-mer (▴), Hsn5 12-mer (×), magainin II (●), chlorhexidine (◯).
# For the peptides MUC7 12-mer-L, MUC7 12-mer-D, and MUC7 20-mer, time-kill kinetic studies against S. mutans were performed by the broth macrodilution method. S. mutans GS-5 (1×10^6 CFU/ml) and antibacterial agens (find concentrations of 12.5 μM for each peptide, and 2 μM for CHX; their MICs) were incubated in 25% BHI at 37° C. At the time of 0, 1, 2, 4, 8, and 24 h, samples were taken and viable counts determined as follows: The samples were serially diluted (10^−1 to 10^−4) in sterile 10 mM PBS (pH 7.2) and 50 μl aliquots were plated onto TSBY agar. The plates were incubated anaerobically at 37° C. for 48 h, followed by enumerating the CFU. Killing curves were constructed by plotting the log10 CFU per milliliter versus time over 24 h. All assays were done in duplicate on at least two occasions.
# [2] = tested on: C. albicans DIS; experiment: Killing assay in whole human saliva
# Description: FIG. 1. Candidacidal activity of MUC7 12-mer-L, MUC7 12-mer-D, Hsn5 12-mer, and Magainin-II in whole human saliva (WHS). Each peptide at final concentration of 25, 50, and 100 μM was incubated with C. albicans (DIS isolate at 1×10^5 cells/ml) and 20 μl of clarified or unclarified saliva (SL; hatched bars), saliva containing Protease inhibitor cocktail (PIC) (SL+PIC; filled bars), or saliva containing ethylenediamine tetraacetic acid (EDTA) (SL+EDTA; clear bars) at 37° C. for 1.5 h. At the end of incubation, the samples were diluted 20-fold and aliquots plated on SDA. The colony forming units (CFU) were counted after 24 h of incubation. The loss of C. albicans viability was determined by the equation (1−CFU of the test group/CFU of the control group)×100%. The data represent three individual trials, and in each trial the sample was duplicated; the error bars represent standard deviation.
# FIG. 4. […] Stimulated whole saliva was collected from 5 healthy subjects. Peptides (50 μM) were incubated with C. albicans cells (1×10^5) in the each individual saliva containing PIC (SL+PIC) at 37° C. for 1.5 hr and the loss of the cell viability was determined. Values represent the mean±S.D. (n=5).
# Killing assays in saliva. Unclarified saliva (unstimulated whole saliva) was collected from five healthy individuals during the fasting. Clarified saliva was obtained by passing the unclarified saliva through the 0.2 μm pore size sterile syringe filter (VWR scientific products, West Chester, Pa.). Candidacidal activity assays were performed as described previously (4), except the phosphate buffer was substituted with saliva. […] Saliva without peptides was a blank control. After incubation at 37° C. for 1.5 h, the reactions were diluted 20-fold in PB and aliquots (50 μl, ˜120 cells) of each sample were plated on SDA. The plates were incubated at 37° C. for 1 day aerobically and the number of colony-forming units (CFUs) was counted. Percentage of killing was calculated as (1−amount of viable cells in the test group)/(amount of viable cells in the control group)×100%.
# [3] = tested on: C. albicans ATCC96112; experiment: Killing assay in clarified saliva; format: cell-based
# Text: (§1) Killing assays in saliva. […] Saliva without peptides was a blank control.
# (§2) Activity of peptides in saliva against different candida strains. The in vitro candidacidal activities of MUC7 12-mer-L and D, Hsn5 12-mer, and Magainin-II against four Candida strains in clarified saliva are shown in Table 1. The data are presented as percent loss of cell viability compared to non-treated control. The following observations were made. […] In the presence of PIC, the activity values of MUC7 12-mer-L and of Magainin-II rose close to a 100% for all strains, but not that of Hsn5 peptide, which achieved the similar activity only against the C. albicans (ATCC strain). The activities against the other strains were much lower, in particular against both strains of C. glabrata (30-40%). […] This was true especially in saliva without PIC.
# [4] = tested on: C. glabrata ATCC90030; experiment: Killing assay in clarified saliva; format: cell-based
# Text: as §1, §2
# [5] = tested on: C. krusei; experiment: Killing assay in clarified saliva; format: cell-based
# Text: as §1, §2
# [6] = tested on: C. glabrata 65C (azole-resistant clinical isolate); format: cell-based; conditions: clarified saliva
# Text: as §1, §2
# [7] = tested on: Erythrocytes; conditions: determined previously (5), cited from earlier work
Compound,reduction of the viable counts of S. mutans [1] [log10],"candidacidal activity (killing) ([2]; 100 μM, clarified saliva, no PIC/EDTA) [%]","killing ([2]; 100 μM, unclarified saliva, no PIC/EDTA) [%]","percent loss of cell viability ([2]; clarified saliva, PIC+ (Table 1))","percent loss of cell viability ([2]; clarified saliva, PIC− (Table 1)) [%]",percent loss of cell viability ([3]; PIC+) [%],percent loss of cell viability ([3]; PIC−) [%],percent loss of cell viability ([4]; PIC+),percent loss of cell viability ([4]; PIC−) [%],percent loss of cell viability ([5]; PIC+) [%],percent loss of cell viability ([5]; PIC−) [%],percent loss of cell viability ([6]; PIC+),percent loss of cell viability ([6]; PIC−) [%],hemolysis ([7]; IGP buffer) [%],hemolysis ([7]; PBS) [%]
"[H]/N=C(\N/C(=N/[H])NCCCCCCNC(=N)NC(=N)Nc1ccc(Cl)cc1)Nc1ccc(Cl)cc1 [Chlorhexidine, Chlorhexidine digluconate]",1,,,,,,,,,,,,,,
GIGKFLHSAKKFGKAFVGEIMNS [Magainin-II],3,0,0,94.42^± %,0.00,97.90,7.17,99.06^± %,0.00,100,0.00,99.80^± %,0.00,92,0
